The target in data set [1] is T1, Peroxisome proliferator-activated receptor gamma (Homo sapiens, UniProt P37231).
T1 sequence (P37231 whole entry): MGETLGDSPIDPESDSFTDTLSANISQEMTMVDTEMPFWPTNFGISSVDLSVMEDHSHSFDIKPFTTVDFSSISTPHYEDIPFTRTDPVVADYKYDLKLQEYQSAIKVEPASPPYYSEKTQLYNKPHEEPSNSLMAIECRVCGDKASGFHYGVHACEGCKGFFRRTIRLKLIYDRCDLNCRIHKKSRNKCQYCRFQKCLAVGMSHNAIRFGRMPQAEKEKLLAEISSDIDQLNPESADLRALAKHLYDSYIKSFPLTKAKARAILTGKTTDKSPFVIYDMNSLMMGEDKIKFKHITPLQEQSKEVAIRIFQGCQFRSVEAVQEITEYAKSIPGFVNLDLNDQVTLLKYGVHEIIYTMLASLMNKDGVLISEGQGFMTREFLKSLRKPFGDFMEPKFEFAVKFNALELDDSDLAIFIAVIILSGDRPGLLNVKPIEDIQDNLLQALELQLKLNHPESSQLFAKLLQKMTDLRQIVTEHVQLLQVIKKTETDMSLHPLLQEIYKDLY
Briefly: (§1) Displacement of fluorescein labeled ligand from PPARgamma receptor by fluorescence polarization assay. On the technique in general: Polarisation of emitted light reports the rotation of a fluorescent probe.

In data set [2] the target is T2, Peroxisome proliferator-activated receptor alpha (Homo sapiens, UniProt Q07869).
T2 sequence (Q07869 whole entry): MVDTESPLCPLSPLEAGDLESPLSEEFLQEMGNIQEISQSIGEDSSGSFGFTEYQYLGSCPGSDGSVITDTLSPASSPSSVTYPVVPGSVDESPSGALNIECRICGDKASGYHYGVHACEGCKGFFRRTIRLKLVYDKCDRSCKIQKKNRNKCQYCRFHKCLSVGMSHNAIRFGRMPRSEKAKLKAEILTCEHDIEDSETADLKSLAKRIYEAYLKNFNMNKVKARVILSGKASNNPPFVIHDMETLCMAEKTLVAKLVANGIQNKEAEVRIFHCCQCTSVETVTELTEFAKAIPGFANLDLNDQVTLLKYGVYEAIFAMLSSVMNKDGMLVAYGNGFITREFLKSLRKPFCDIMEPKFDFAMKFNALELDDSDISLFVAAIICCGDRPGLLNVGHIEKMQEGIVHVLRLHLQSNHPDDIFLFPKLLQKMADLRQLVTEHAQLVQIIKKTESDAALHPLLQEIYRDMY
Briefly: Agonist activity at PPARalpha receptor expressed in HEK293 cells by GAL4 transactivation assay. It is filed as functional, cell-based.

Data set [3] addresses T1, Peroxisome proliferator-activated receptor gamma.
Description: Agonist activity at PPARgamma receptor expressed in HEK293 cells by GAL4 transactivation assay
The target in data set [4] is T3, Peroxisome proliferator-activated receptor alpha (Homo sapiens) (UniProt Q07869).
T3 sequence (whole entry): T2 sequence (Q07869 whole entry)
Briefly: Intrinsic activity at PPARalpha receptor expressed in HEK293 cells at 1 uM by GAL4 transactivation assay relative to GW-2331. Format: cell-based.

In data set [5] the target is T2, Peroxisome proliferator-activated receptor alpha. Briefly: Displacement of fluorescein labeled ligand from PPARalpha receptor by fluorescence polarization assay.
The nature of data set [6]: Permeability from apical to basolateral side of Caco-2 cell membrane at pH 7.4. Format: ADME, cell-based. The settings on record: human, Caco-2, pH 7.4; read-out: permeability.
Data set [7] has as its system Mus musculus. Briefly: Antidiabetic activity in db/db mouse assessed as changes in free fatty acid level at 10 mg/kg, po qd for 14 days. Format: functional.
The subject of data set [8] is Mus musculus. Briefly: Antidiabetic activity in db/db mouse assessed as changes in triglyceride level at 10 mg/kg, po qd for 14 days. Format: functional.
Data set [9] concerns Mus musculus. As to the kind of experiment: Antidiabetic activity in db/db mouse assessed as changes in insulin level at 10 mg/kg, po qd for 14 days. It is filed as functional.
A short description of data set [10]: Metabolic stability in mouse liver microsomes after 10 mins. It is filed as ADME, Microsome. The settings on record: read-out: Stability.
Data set [11] can be described thus: Permeability from apical to basolateral side of Caco-2 cell membrane at pH 5.5. It is filed as ADME, cell-based. Particulars: human, Caco-2, pH 5.5; read-out: permeability. In general terms: Caco-2 cells form a polarised layer with tight junctions and transporters.
In data set [12] the test system is Mus musculus. Briefly: Antidiabetic activity in db/db mouse assessed as changes in glucose level at 10 mg/kg, po qd for 14 days. It is filed as functional.
Data set [13] concerns the target T4, Peroxisome proliferator-activated receptor gamma (Homo sapiens) (UniProt P37231).
T4 sequence (whole entry): T1 sequence (P37231 whole entry)
The data set is described as §1.

Data set [14] is described as follows: Permeability from apical to basolateral side of Caco-2 cell membrane at pH 6.5. The settings on record: human, Caco-2, pH 6.5; read-out: permeability. Format: ADME, cell-based.

Calls of active or inactive are those of the source. No cut-off for these calls is given here.

Take `Cc1oc(-c2ccccc2)nc1CCOc1ccc(CN(CC(=O)O)Cc2ccc(OCc3ccccc3)cc2)cc1`: the IC50 amounted to 0.284 µM in data set [1] and 1.05 µM in data set [5]. Besides, the results for the EC50 in data set [2] and in data set [3] were 0.189 µM and 0.221 µM, respectively. The Intrinsic activity in data set [4] amounted to 106%.

As to `Cc1oc(-c2ccccc2)nc1CCOc1cccc(CN(CCc2ccccc2)CC(=O)O)c1`, the IC50 came out at 0.134 µM in data set [1] and 0.075 µM in data set [5]. The EC50 turned out to be 0.044 µM in data set [2] and 0.108 µM in [3]. Moreover, in data set [4], the Intrinsic activity was 82%.

On to `Cc1oc(-c2ccccc2)nc1CCOc1ccc(CN(CC(=O)O)Cc2ccccn2)cc1`, for which the IC50 in [1] stood at 2.9 µM. In addition, the EC50 in data set [2] was 0.692 µM; in data set [3], 0.23 µM. Moreover, the Intrinsic activity in [4] was found to be 12%.

For `Cc1oc(-c2ccccc2)nc1CCOc1cccc(CN(CCCc2ccccc2)CC(=O)O)c1`, the IC50 was found to be 0.773 µM in data set [1] and 0.051 µM in data set [5]. The figures for the EC50 in data set [2] and in [3] were 0.047 µM and 0.901 µM, respectively. The Intrinsic activity in data set [4] stood at 62%.

As to `Cc1oc(-c2ccccc2)nc1CCOc1cccc(CN(CC(=O)O)Cc2ccccc2)c1`, the Papp A→B in data set [6] was 22.5 ×10⁻⁶ cm/s; in data set [11], 25.1 ×10⁻⁶ cm/s. The IC50 in [1] was determined as 0.24 µM; in data set [5], 0.09 µM. Besides, the EC50 in data set [2] was 0.022 µM; in [3], 0.295 µM. For the same compound, the Activity in data set [7] is given as -22%; in data set [8], -29%; in data set [9] it was -40%; in data set [12], -31%. Moreover, in data set [4], the Intrinsic activity amounted to 72%. In addition, the remaining at 10 min in data set [10] is 84%.

As to `Cc1oc(-c2ccccc2)nc1CCOc1ccc(CN(CC(=O)O)Cc2cccc3ccccc23)cc1`, the IC50 in data set [1] was 0.767 µM; in data set [5] it was 0.14 µM. Also, the EC50 amounted to 0.021 µM in data set [2] and 0.84 µM in data set [3]. Further, the Intrinsic activity in [4] was 90%.

Turning to `Cc1oc(-c2ccccc2)nc1CCOc1ccc(CN(CC(=O)O)Cc2cccc(Oc3ccccc3)c2)cc1`, the IC50 in [1] was determined as 0.48 µM; in data set [5], 0.088 µM. For the same compound, the figures for the EC50 in data set [2] and in data set [3] were 0.004 µM and 0.391 µM, respectively. Moreover, the Intrinsic activity in data set [4] amounted to 107%.

`COc1ccc(OC(=O)N(CC(=O)O)Cc2ccc(OCCc3nc(-c4ccccc4)oc3C)cc2)cc1` [MURAGLITAZAR]: the Activity is on record as -69% in data set [7], -50% in data set [8], -67% in [9] and -50% in data set [12].

For the compound `Cc1oc(-c2ccccc2)nc1CCOc1ccc(CN(CCOCc2ccccc2)CC(=O)O)cc1`, the IC50 in data set [1] was determined as 4.56 µM; in data set [5] it was 1.8 µM. Besides, the EC50 in [2] was determined as 0.726 µM; in data set [3], 1.18 µM. Also, the Intrinsic activity in data set [4] turned out to be 56%.

Take `CCC(CC)CN(CC(=O)O)Cc1ccc(OCCc2nc(-c3ccccc3)oc2C)cc1`: in [13], the outcome was inactive. Moreover, the EC50 in [3] amounted to 1.8 µM. For the same compound, in [4], the Intrinsic activity came to 8%.

Regarding `Cc1oc(-c2ccccc2)nc1CCOc1cccc(CN(CC(=O)O)Cc2ccc(Oc3ccccc3)cc2)c1`, the half-inhibitory concentration (IC50) in data set [1] is 0.23 µM; in [5] it was 0.11 µM. Further, the EC50 was 0.03 µM in data set [2] and 0.067 µM in data set [3]. In [4], the Intrinsic activity is 67%.

`Cc1oc(-c2ccccc2)nc1CCOc1ccc(CN(CC(=O)O)Cc2ccccc2)cc1` returned a 50% inhibitory concentration (IC50) in [1] of 1.77 µM. Further, the EC50 in data set [2] came out at 4.02 µM; in [3] it was 3.6 µM. The Intrinsic activity in [4] is 24%.

For `Cc1oc(-c2ccccc2)nc1CCOc1cccc(CN(CC(=O)O)Cc2cc3ccccc3[nH]2)c1`, the IC50 in data set [1] worked out at 0.54 µM; in data set [5], 0.246 µM. The EC50 in [2] was 0.197 µM; in data set [3], 0.759 µM. Besides, the Intrinsic activity in data set [4] amounted to 62%.

For `Cc1oc(-c2ccccc2)nc1CCOc1ccc(CN(CC(=O)O)Cc2ccc(-c3ccccc3Cl)o2)cc1`, the IC50 in [1] stood at 0.28 µM; in data set [5] it was 1.8 µM. In addition, the EC50 in [2] worked out at 0.871 µM; in [3], 0.267 µM. Further, the Intrinsic activity in [4] worked out at 55%.

As for `Cc1oc(-c2ccccc2)nc1CCOc1cccc(CN(CC(=O)O)Cc2cccc(Oc3ccccc3)c2)c1`, the figures for the IC50 in data set [1] and in data set [5] were 0.11 µM and 0.083 µM, respectively. Further, the EC50 stood at 0.062 µM in data set [2] and 0.359 µM in [3]. Besides, the Intrinsic activity in data set [4] came out at 95%.

With `CCCCCCCN(CC(=O)O)Cc1ccc(OCCc2nc(-c3ccccc3)oc2C)cc1`, the figures for the IC50 in data set [1] and in [5] were 2.3 µM and 1.05 µM, respectively. For the same compound, the EC50 in [2] was 0.18 µM; in [3], 0.136 µM. For the same compound, the Intrinsic activity in [4] is 63%.

For `Cc1oc(-c2ccccc2)nc1CCOc1cccc(CN(CC(=O)O)Cc2ccc(OCc3ccccc3)cc2)c1`, the results for the IC50 in data set [1] and in data set [5] were 0.183 µM and 0.387 µM, respectively. Moreover, the EC50 in [2] is 0.324 µM; in [3] it was 0.412 µM. Moreover, in data set [4], the Intrinsic activity amounted to 56%.

`Cc1oc(-c2ccccc2)nc1CCOc1ccc(CN(CC(=O)O)Cc2ccc(Oc3ccccc3)cc2)cc1`: the half-maximal inhibitory concentration (IC50) in [1] is 0.227 µM; in data set [5], 0.97 µM. Moreover, the 50% effective concentration (EC50) in data set [2] came out at 0.035 µM; in [3], 0.052 µM. In addition, the Intrinsic activity in [4] amounted to 59%. Moreover, the remaining at 10 min in data set [10] turned out to be 46%. In addition, the Papp A→B in [14] was under 1.5 ×10⁻⁶ cm/s.

As to `Cc1oc(-c2ccccc2)nc1CCOc1cccc(CN(CC(=O)O)Cc2ccc3ccccc3c2)c1`, the figures for the IC50 in data set [1] and in data set [5] were 0.145 µM and 0.149 µM, respectively. Further, the EC50 came to 0.313 µM in data set [2] and 1.39 µM in data set [3]. In addition, the Intrinsic activity in data set [4] was determined as 65%.

With `Cc1oc(-c2ccccc2)nc1CCOc1ccc(C[C@H](Nc2ccccc2C(=O)c2ccccc2)C(=O)O)cc1`, in data set [4], the Intrinsic activity was found to be 59%.

`Cc1oc(-c2ccccc2)nc1CCOc1ccc(CN(CC(=O)O)Cc2ccc3c(c2)OCO3)cc1`: the IC50 in data set [1] amounted to 3.29 µM; in data set [5], 1.8 µM. Moreover, the half-maximal effective concentration (EC50) in data set [2] is 0.128 µM; in data set [3], 0.307 µM. The Intrinsic activity in data set [4] is 77%.

In the case of `CCCCCCCN(CCc1ccc(O[C@@](C)(CC)C(=O)O)cc1)C(=O)Nc1ccc(F)cc1F`, the IC50 came out at 0.67 µM in data set [1] and 0.348 µM in data set [5]. For the same compound, the values for the EC50 in data set [2] and in [3] were 0.071 µM and 0.249 µM, respectively. Besides, the Intrinsic activity in data set [4] was 79%.

Turning to `Cc1oc(-c2ccccc2)nc1CCOc1ccc(CN(CC(=O)O)Cc2ccc3ccccc3c2)cc1`, the IC50 worked out at 1.21 µM in [1] and 0.68 µM in [5]. Besides, the EC50 was 0.618 µM in data set [2] and 1.21 µM in data set [3]. In addition, the Intrinsic activity in [4] worked out at 39%.

As for `Cc1oc(-c2ccccc2)nc1CCOc1cccc(CN(CC(=O)O)Cc2cccc3ccccc23)c1`, the 50% inhibitory concentration (IC50) stood at 0.067 µM in [1] and 0.034 µM in data set [5]. For the same compound, the EC50 in data set [2] came out at 0.005 µM; in data set [3], 0.036 µM. Moreover, the Intrinsic activity in data set [4] was found to be 85%.

Usually IC50 stands for the midpoint of a concentration-inhibition curve. Read a high IC50 as weaker potency. Broadly, the EC50 is the midpoint of the concentration-response curve.

Values taken from ChEMBL document CHEMBL1139149, “Discovery of tertiary aminoacids as dual PPARalpha/gamma agonists-I” (Bioorg Med Chem Lett, 2007).
